A word on the IC50: it is the point on the concentration scale where inhibition reaches its midpoint.

T1 sequence (P05067 whole entry): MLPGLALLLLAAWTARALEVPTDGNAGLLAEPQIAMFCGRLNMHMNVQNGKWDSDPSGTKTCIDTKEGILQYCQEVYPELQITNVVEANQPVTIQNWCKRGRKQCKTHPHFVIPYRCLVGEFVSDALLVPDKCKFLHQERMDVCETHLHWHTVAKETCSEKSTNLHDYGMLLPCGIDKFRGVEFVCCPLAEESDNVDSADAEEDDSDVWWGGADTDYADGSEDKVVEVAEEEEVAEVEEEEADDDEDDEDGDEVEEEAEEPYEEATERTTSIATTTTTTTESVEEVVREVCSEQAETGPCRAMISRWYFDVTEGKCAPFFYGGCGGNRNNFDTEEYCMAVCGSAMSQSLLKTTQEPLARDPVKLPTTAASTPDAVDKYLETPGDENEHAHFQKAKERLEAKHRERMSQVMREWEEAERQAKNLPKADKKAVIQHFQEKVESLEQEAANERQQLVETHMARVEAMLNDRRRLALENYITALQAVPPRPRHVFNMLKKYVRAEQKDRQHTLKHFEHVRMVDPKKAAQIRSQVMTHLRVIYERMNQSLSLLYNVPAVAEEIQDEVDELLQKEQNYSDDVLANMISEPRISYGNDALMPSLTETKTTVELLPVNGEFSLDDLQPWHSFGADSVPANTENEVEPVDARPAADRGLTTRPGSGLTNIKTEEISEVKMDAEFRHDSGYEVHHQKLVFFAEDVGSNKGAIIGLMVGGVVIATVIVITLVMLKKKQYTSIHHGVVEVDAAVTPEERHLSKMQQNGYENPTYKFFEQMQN
Sequence of Histone deacetylase 1 (Q13547 whole entry): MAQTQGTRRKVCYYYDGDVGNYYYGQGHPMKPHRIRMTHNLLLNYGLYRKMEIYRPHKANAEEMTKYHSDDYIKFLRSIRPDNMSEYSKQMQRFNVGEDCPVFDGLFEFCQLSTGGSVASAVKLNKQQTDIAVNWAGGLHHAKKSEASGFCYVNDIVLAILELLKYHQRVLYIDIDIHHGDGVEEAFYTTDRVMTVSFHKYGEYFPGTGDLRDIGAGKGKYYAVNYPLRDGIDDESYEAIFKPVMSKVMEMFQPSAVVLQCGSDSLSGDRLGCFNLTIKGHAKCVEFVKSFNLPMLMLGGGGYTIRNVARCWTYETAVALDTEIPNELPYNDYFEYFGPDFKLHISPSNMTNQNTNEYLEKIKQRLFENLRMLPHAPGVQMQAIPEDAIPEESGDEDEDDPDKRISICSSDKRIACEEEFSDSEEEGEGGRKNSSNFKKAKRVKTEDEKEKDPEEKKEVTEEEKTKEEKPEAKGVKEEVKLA

The first series addresses T1, Amyloid-beta precursor protein (Homo sapiens, UniProt P05067). The experiment in a line: Inhibition of amyloid beta aggregation (unknown origin) after 4 hrs by thioflavin S assay in absence of Zn2+.
Conditions: not given
With `Cc1nc2ccc(/C=C/C(=O)NO)cc2c(=O)n1-c1ccccc1`, the IC50 is greater than 50 µM.
Still for that read-out and setting: the figure for `O=C(O)c1cccnc1` [NIACIN] is 13.1 µM.
Same read-out and setting: the figure for `Cc1nc2cc(/C=C/C(=O)NO)ccc2c(=O)n1CCc1c[nH]c2ccccc12` is greater than 50 µM; for `Cc1nc2c(/C=C/C(=O)NO)cccc2c(=O)n1-c1ccccc1` it is greater than 50 µM.

For a further series, the target named is T1, Amyloid-beta precursor protein. Kind of series: Inhibition of amyloid beta aggregation (unknown origin) after 4 hrs by thioflavin S assay in presence of Zn2+.
Conditions: not given
As for `Cc1nc2ccc(/C=C/C(=O)NO)cc2c(=O)n1-c1ccccc1`, the IC50 is greater than 50 µM.
`O=C(O)c1cccnc1` [NIACIN]: the IC50 was 43.7 µM.
In the case of `Cc1nc2c(/C=C/C(=O)NO)cccc2c(=O)n1-c1ccccc1`, the IC50 is greater than 50 µM.

Another series is filed under the species Homo sapiens. The experiment in a line: Selectivity index, ratio of IC50 for human recombinant HDAC1 to IC50 for human recombinant HDAC6.
Conditions: not given
For the compound `Cc1nc2ccc(/C=C/C(=O)NO)cc2c(=O)n1-c1ccccc1`, the Ratio IC50 stood at 65.
As for `Cc1nc2cc(/C=C/C(=O)NO)ccc2c(=O)n1CCc1c[nH]c2ccccc12`, the Ratio IC50 was determined as 51.
As to `Cc1nc2c(/C=C/C(=O)NO)cccc2c(=O)n1-c1ccccc1`, the Ratio IC50 is 70.

The species named for the next series is Homo sapiens. Kind of series: Selectivity index, ratio of IC50 for human recombinant HDAC8 to IC50 for human recombinant HDAC6.
Conditions: not given
For the compound `Cc1nc2ccc(/C=C/C(=O)NO)cc2c(=O)n1-c1ccccc1`, the Ratio IC50 was found to be 19.
Turning to `Cc1nc2cc(/C=C/C(=O)NO)ccc2c(=O)n1CCc1c[nH]c2ccccc12`, the Ratio IC50 worked out at 106.
Turning to `Cc1nc2c(/C=C/C(=O)NO)cccc2c(=O)n1-c1ccccc1`, the Ratio IC50 was less than 1.

Another series deals with T2, Histone deacetylase 11 (Homo sapiens, UniProt Q96DB2).
T2 sequence (Q96DB2 whole entry): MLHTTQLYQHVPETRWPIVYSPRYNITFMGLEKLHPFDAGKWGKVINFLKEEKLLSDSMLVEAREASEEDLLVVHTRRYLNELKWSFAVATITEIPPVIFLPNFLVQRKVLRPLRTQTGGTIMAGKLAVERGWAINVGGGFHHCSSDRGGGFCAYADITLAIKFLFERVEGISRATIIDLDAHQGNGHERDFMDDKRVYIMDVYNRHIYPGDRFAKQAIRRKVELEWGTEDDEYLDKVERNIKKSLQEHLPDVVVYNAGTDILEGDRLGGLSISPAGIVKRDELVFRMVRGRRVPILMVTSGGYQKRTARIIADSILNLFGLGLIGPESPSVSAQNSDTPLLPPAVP
Kind of series: Inhibition of human recombinant HDAC11 expressed in baculovirus/sf9 cells using RHKKAc as substrate.
Conditions: not given
Take `Cc1nc2ccc(/C=C/C(=O)NO)cc2c(=O)n1-c1ccccc1`: the IC50 was 5.22 µM.
Same read-out and setting: the figure for `Cc1nc2cc(/C=C/C(=O)NO)ccc2c(=O)n1CCc1c[nH]c2ccccc12` is 1.21 µM; for `Cc1nc2c(/C=C/C(=O)NO)cccc2c(=O)n1-c1ccccc1` it is greater than 10 µM.

A further series addresses T3, Protein deacetylase HDAC6 (Homo sapiens, UniProt Q9UBN7).
T3 sequence (Q9UBN7 whole entry): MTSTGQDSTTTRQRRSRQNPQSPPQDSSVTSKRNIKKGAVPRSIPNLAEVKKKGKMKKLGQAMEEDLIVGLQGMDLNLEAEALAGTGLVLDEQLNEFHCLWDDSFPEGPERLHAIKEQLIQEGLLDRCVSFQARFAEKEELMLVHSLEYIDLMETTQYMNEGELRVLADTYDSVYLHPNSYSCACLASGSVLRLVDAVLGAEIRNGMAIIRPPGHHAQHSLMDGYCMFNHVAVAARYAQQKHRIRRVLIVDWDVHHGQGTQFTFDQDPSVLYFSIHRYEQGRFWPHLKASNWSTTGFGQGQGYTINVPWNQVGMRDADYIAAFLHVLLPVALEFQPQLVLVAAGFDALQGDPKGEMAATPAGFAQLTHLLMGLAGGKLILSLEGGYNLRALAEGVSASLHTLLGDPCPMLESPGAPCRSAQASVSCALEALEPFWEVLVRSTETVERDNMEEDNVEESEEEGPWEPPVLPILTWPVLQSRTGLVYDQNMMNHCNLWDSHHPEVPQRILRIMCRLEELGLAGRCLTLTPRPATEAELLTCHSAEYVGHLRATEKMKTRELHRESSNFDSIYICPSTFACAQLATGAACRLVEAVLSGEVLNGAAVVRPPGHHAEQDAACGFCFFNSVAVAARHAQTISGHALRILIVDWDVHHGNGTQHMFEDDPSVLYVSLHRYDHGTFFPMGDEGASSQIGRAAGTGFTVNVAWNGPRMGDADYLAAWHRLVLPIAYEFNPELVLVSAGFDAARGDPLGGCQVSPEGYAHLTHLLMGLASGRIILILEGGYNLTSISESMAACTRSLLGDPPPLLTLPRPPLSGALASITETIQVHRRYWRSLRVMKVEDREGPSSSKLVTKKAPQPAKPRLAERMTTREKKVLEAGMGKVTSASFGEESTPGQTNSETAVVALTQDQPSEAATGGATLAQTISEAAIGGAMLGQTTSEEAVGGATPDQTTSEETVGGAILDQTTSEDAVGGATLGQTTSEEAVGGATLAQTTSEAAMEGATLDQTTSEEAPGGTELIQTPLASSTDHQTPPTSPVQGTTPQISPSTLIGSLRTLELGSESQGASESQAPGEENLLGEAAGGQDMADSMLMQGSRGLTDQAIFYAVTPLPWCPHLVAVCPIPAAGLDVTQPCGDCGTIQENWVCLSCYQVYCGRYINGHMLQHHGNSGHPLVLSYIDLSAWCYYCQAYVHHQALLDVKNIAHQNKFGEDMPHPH
The experiment in a line: Inhibition of human recombinant HDAC6 expressed in baculovirus/sf9 cells using RHKKAc as substrate.
Conditions: not given
Consider `Cc1nc2ccc(/C=C/C(=O)NO)cc2c(=O)n1-c1ccccc1`, for which the half-maximal inhibitory concentration (IC50) was 0.032 µM.
Take `Cc1nc2cc(/C=C/C(=O)NO)ccc2c(=O)n1CCc1c[nH]c2ccccc12`: the IC50 was 0.015 µM.
With `Cc1nc2c(/C=C/C(=O)NO)cccc2c(=O)n1-c1ccccc1`, the IC50 came out at 0.69 µM.

A further series has as its target T4, Polyamine deacetylase HDAC10 (Homo sapiens, UniProt Q969S8).
T4 sequence (Q969S8 whole entry): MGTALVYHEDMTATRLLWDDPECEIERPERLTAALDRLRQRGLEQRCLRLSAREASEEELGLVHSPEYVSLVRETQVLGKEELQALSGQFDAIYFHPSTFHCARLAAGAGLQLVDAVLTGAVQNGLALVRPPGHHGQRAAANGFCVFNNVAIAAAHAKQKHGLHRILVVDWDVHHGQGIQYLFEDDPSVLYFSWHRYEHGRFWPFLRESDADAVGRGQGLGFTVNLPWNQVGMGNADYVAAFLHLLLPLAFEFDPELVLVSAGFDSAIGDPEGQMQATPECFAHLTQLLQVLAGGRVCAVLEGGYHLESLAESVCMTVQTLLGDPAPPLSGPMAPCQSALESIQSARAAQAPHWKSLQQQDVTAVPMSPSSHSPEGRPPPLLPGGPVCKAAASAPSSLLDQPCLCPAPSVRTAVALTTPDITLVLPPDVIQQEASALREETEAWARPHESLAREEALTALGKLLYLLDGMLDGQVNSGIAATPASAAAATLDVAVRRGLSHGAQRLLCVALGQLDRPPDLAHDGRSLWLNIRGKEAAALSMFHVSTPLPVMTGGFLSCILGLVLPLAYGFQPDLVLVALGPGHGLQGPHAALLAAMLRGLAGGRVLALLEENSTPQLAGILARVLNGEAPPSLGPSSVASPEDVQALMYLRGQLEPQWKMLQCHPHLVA
The experiment in a line: Inhibition of human recombinant HDAC10 expressed in baculovirus/sf9 cells using RHKKAc as substrate.
Conditions: not given
For `Cc1nc2ccc(/C=C/C(=O)NO)cc2c(=O)n1-c1ccccc1`, the IC50 amounted to 5.14 µM.
On the same count and under the same terms, the figure for `Cc1nc2c(/C=C/C(=O)NO)cccc2c(=O)n1-c1ccccc1` is 29.8 µM.

The next series has as its target T5, Histone deacetylase 8 (Homo sapiens, UniProt Q9BY41).
T5 sequence (Q9BY41 whole entry): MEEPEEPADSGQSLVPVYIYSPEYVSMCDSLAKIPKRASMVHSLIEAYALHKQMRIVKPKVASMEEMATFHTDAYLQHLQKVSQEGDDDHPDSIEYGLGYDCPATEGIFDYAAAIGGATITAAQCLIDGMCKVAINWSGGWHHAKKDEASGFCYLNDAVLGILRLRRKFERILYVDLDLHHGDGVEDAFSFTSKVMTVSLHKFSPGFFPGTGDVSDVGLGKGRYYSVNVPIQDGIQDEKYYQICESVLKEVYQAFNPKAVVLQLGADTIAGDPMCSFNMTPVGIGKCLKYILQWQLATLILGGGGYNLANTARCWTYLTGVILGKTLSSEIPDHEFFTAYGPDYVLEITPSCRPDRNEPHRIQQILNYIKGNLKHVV
Kind of series: Inhibition of human recombinant HDAC8 expressed in baculovirus/sf9 cells using RHKAcKAc as substrate.
Conditions: not given
For the compound `Cc1nc2ccc(/C=C/C(=O)NO)cc2c(=O)n1-c1ccccc1`, the IC50 worked out at 0.609 µM.
Same read-out and setting: the figure for `Cc1nc2cc(/C=C/C(=O)NO)ccc2c(=O)n1CCc1c[nH]c2ccccc12` is 1.59 µM; for `Cc1nc2c(/C=C/C(=O)NO)cccc2c(=O)n1-c1ccccc1` it is 0.42 µM.

A further series has as its target Histone deacetylase 1 (Homo sapiens, UniProt Q13547). Kind of series: Inhibition of human recombinant HDAC1 expressed in baculovirus/sf9 cells using RHKKAc as substrate.
Conditions: not given
Take `Cc1nc2ccc(/C=C/C(=O)NO)cc2c(=O)n1-c1ccccc1`: the IC50 amounted to 2.09 µM.
Same read-out and setting: the figure for `Cc1nc2cc(/C=C/C(=O)NO)ccc2c(=O)n1CCc1c[nH]c2ccccc12` is 0.758 µM; for `Cc1nc2c(/C=C/C(=O)NO)cccc2c(=O)n1-c1ccccc1` it is 48.5 µM.

The next series deals with Histone deacetylase 2 (Homo sapiens, UniProt Q92769). Kind of series: Inhibition of human recombinant HDAC2 expressed in baculovirus/sf9 cells using RHKKAc as substrate.
Sequence of Histone deacetylase 2 (Q92769 whole entry): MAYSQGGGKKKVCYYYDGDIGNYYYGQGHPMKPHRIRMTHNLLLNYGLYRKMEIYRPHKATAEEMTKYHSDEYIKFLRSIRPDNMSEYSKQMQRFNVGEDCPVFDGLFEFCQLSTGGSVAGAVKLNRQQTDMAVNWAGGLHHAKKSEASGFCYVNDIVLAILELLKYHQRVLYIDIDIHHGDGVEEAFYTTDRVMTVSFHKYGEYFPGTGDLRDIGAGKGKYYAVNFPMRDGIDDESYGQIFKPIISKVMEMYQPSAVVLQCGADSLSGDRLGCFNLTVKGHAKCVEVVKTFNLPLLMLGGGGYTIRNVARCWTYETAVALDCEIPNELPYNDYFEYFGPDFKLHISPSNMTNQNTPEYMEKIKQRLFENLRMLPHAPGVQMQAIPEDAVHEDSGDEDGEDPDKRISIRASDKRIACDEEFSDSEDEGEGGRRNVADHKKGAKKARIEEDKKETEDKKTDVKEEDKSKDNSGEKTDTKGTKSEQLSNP
Conditions: not given
Regarding `Cc1nc2ccc(/C=C/C(=O)NO)cc2c(=O)n1-c1ccccc1`, the IC50 came out at 7.48 µM.
Turning to `Cc1nc2cc(/C=C/C(=O)NO)ccc2c(=O)n1CCc1c[nH]c2ccccc12`, the IC50 came to 2.21 µM.
On the same count and under the same terms, the figure for `Cc1nc2c(/C=C/C(=O)NO)cccc2c(=O)n1-c1ccccc1` is greater than 10 µM.

The test system of another series is Vero. The experiment in a line: Cytotoxicity against african green monkey Vero cells at 25 uM. Type of series: cell-based. The note with it: chlorocebus sabaeus.
In the case of `Cc1nc2ccc(/C=C/C(=O)NO)cc2c(=O)n1-c1ccccc1`, the Activity entry is “Non-toxic”.
With `Cc1nc2cc(/C=C/C(=O)NO)ccc2c(=O)n1CCc1c[nH]c2ccccc12`, the Activity entry is recorded as “Non-toxic”.
Still for that read-out and setting: the entry for `Cc1nc2c(/C=C/C(=O)NO)cccc2c(=O)n1-c1ccccc1` is “Non-toxic”.

System in another series: not listed separately
The experiment in a line: Cytotoxicity against human SH-SY5Y cells at 25 uM. Type of series: cell-based.
Conditions: not given
Turning to `Cc1nc2ccc(/C=C/C(=O)NO)cc2c(=O)n1-c1ccccc1`, the Activity result is on record as “Non-toxic”.
On the same count and under the same terms, the entry for `Cc1nc2cc(/C=C/C(=O)NO)ccc2c(=O)n1CCc1c[nH]c2ccccc12` is “Non-toxic”.
The same measure, in the same setting: the entry for `Cc1nc2c(/C=C/C(=O)NO)cccc2c(=O)n1-c1ccccc1` is “Non-toxic”.

In the next series the test system is PC-12. Kind of series: Cytotoxicity against rat PC12 cells at 25 uM. Type of series: cell-based. As to conditions: pc-12, 25 µM.
As to `Cc1nc2ccc(/C=C/C(=O)NO)cc2c(=O)n1-c1ccccc1`, the Activity result is reported as “Non-toxic”.
Same read-out and setting: the entry for `Cc1nc2cc(/C=C/C(=O)NO)ccc2c(=O)n1CCc1c[nH]c2ccccc12` is “Non-toxic”; for `Cc1nc2c(/C=C/C(=O)NO)cccc2c(=O)n1-c1ccccc1` it is “Non-toxic”.
